Data: patent US5136090A, “Biphenyl-5,5'-bis-alkanoic acid derivatives, their production and aldose reductase inhibitors containing the same” (Toyo Jozo Kabushiki Kaisha, priority 1990, dated 1992)

Assays:
[1] = target: T1, partially purified bovine lens aldose reductase (Bos taurus, UniProt P16116); test: Inhibitory activity on aldose reductase enzyme reaction; assay type: biochemical; settings: for inhibition at 0.1 µg/mL: concentration 0.1 μg/ml; for inhibition at 1 µg/mL: concentration 1.0 μg/ml; for inhibition at 0.02 µg/mL: concentration 0.02 μg/ml
T1 construct: partially purified bovine lens aldose reductase; from tissue; host or cells: bovine lens
Description: The preparation of aldose reductase and the determination of its inhibitory action on enzyme reaction activity were carried out pursuant to the procedures disclosed by Haymann et al. in Journal of Biological Chemistry, 240, 877 (1965).
The sample solution to be examined for inhibitory activity was prepared by dissolving a compound of formula (I) according to the present invention in a small amount of methanol and increasing the volume of the resulting methanol solution by diluting it with distilled water up to tenfold volume. A partially purified bovine lens aldose reductase was used for the assay.
To 2.4 ml of a solution of 5×10^-5 M NADPH dissolved in a 2/15M phosphate buffer solution (pH 6.0), 0.4 ml of the enzyme solution (15 m units/ml) and 0.1 ml of the sample solution to be examined were added and the mixture was introduced into a quartz cell in a photoelectric photometer and subjected to pre-incubation at 37° C. for 4 mins. Then, 0.1 ml of a 0.015M D,L-glyceraldehyde solution was added thereto for initiating the enzyme reaction and the decrease in the optical absorption at 340 nm was measured at 37° C. for 4 mins. The inhibitory activity on aldose reductase was calculated by the following equation: [formula] in which A represents the enzyme reaction rate with addition of the inhibitor and B denotes the enzyme reaction rate without addition of the inhibitor.

[2] = tested on: Lens; test: Suppression of sorbitol accumulation in cultured lens; assay type: cell-based, Wistar rats; settings: rat lens cultured 20 hours with 0.9% glucose; for inhibition at 5 µg/mL: concentration 5 μg/ml; for inhibition at 2.5 µg/mL: concentration 2.5 μg/ml
Description: (§1) Lenses and sciatic nerves extirpated from Wistar rats, male, aged 7 weeks, were washed twice with an aseptic buffer solution consisting of 0.3% trisaminomethane, 0.8% NaCl, 0.038% KCl, 0.025% Na2 HPO4 ·12H2 O, 0.1% glucose and 1.85 ml/l of concentrated HCl.
(§2) The lenses and the sciatic nerves were then preincubated for 30 mins. in a culture medium prepared by adding 2 ml of 7.5% NaHCO3 aseptic solution and 5.5 ml of aseptic calf fetus serum to 100 ml of an aseptic culture medium of 0.98% TC Medium 199 (NISSUI Corp.) containing 0.01% of dihydrostreptomycin and 0.01% of benzylpenicillin. Thereafter, the intrinsic culture was effected in a culture medium prepared by adding each sample solution to be examined and 0.9% of glucose to the abovementioned culture medium and permitting culturing to proceed for 20 hours. The incubation was effected at 37° C. in an atmosphere composed of 95% air and 5% CO2.
(§3) After culturing, the cultured samples of lens and sciatic nerve were removed from the culture medium to filter paper and the weight of each of them was measured after the adherent culture solution had been blown off. Then, each of the cultured samples was homogenized with the addition of 1 ml of a cold 8% HClO4 solution and the homogenized mixture was subjected to centrifugation at 10,000 G for 10 mins., whereby a supernatant was obtained. The resulting precipitate was then homogenized again with addition thereto of 0.5 ml of cold 8% HClO4 solution and the homogenized mixture was again subjected to centrifugation in a similar way as above to obtain a further supernatant. This was combined with the previously obtained supernatant and the resulting solution was neutralized with 2N KOH aq. solution and was supplemented with distilled water to a volume of 5 ml. The precipitate formed by neutralization was separated by centrifugation at 3,000 rpm for 10 mins. and the resulting supernatant was employed as the sample for determining the sorbitol content.
(§4) The determination of the sorbitol content in the lens and in the sciatic nerve was carried out in accordance with the method of Bergmeyer in "Methods of Enzymatic Analysis" edited by H. U. Bergmeyer, pp 1323-1326, Academic Press, New York, 1974 and in accordance with the method of Malaon et al. in "Diabetes" 29, 861-864 (1980).
(§5) To 0.5 ml cf the sample solution for determination of sorbitol content obtained as above, 0.9 ml of 0.1M glycine-KOH buffer solution (pH 9.4) containing 1 mM of NAD^+ and 0.1 ml of a solution of sorbitol dehydrogenase of 20 units/ml were added and the resulting mixture was subjected to incubation at 37° C. for 1 hour.
(§6) The content of sorbitol in each tissue was estimated by assuming the increment of the optical absorption at 340 nm to be proportional to the amount of NADH produced by the reaction for the lens and by detecting the fluorescence with an excitation wavelength of 366 nm and a fluorescence wavelength of 425 nm for the sciatic nerve.
(§7) The activity for suppressing accumulation of sorbitol, i.e. the aldose reductase inhibiting activity, was calculated from the determined sorbitol content by the calculation formula [formula] in which A denotes the content of sorbitol per unit weight of the tissue after cultivation with addition of the inhibitor, B denotes the sorbitol content per unit weight of the tissue after cultivation without addition of the inhibitor and C represents the sorbitol content per unit weight of the tissue after cultivation in the medium without addition of glucose and inhibitor.

[3] = tested on: Sciatic Nerve; test: Suppression of sorbitol accumulation in cultured sciatic nerve; assay type: cell-based, Wistar rats; settings: concentration 1.0 μg/ml, rat sciatic nerve cultured 20 hours with 0.9% glucose; for inhibition at 1 µg/mL: Rattus norvegicus, 20 h
Description: as §1, §2, §3, §4, §5, §6, §7

Row | inhibition at 0.1 µg/mL [1] [%] | inhibition at 1 µg/mL [1] [%] | inhibition at 0.02 µg/mL [1] [%] | Structure (SMILES) | inhibition at 5 µg/mL [2] [%] | inhibition at 1 µg/mL [3] [%] | inhibition at 2.5 µg/mL [2] [%] | Inhibition of sorbitol Accumulation (%) Sciatic Nerve [3] [%]
1 | 67.4 | 93.7 | – | CCCCCCCCOc1ccc(CCC(=O)O)cc1-c1cc(CCC(=O)O)ccc1O [Example 10, 2-octyloxy-2'-hydroxy-5,5'-bis (2-carboxyethyl) biphenyl] | 37.7 | 33.6 | – | –
2 | 62.6 | – | 23.8 | O=C(O)CCCc1ccc(O)c(-c2cc(CCCC(=O)O)ccc2OCc2ccc(Br)cc2F)c1 [Example 19, 2-(2-fluoro-4-bromobenzyloxy)-2'-hydroxy-5, 5'-bis (3-carboxypropyl) biphenyl] | – | – | – | –
3 | 50.4 | 88.2 | – | O=C(O)CCc1ccc(O)c(-c2cc(CCC(=O)O)ccc2OCC2CCCCO2)c1 (centres unmarked) [Example 4, 2-(tetrahydro-2H-pyran-2-yl) methoxy-2'-hydroxy-5,5'-bis (2-carboxyethyl) biphenyl] | – | – | – | –
4 | 73.6 | 91.9 | – | O=C(O)CCc1ccc(O)c(-c2cc(CCC(=O)O)ccc2OCC2CCCCC2)c1 [Example 3, 2-cyclohexylmethoxy-2'-hydroxy-5,5'-bis (2-carboxyethyl) biphenyl] | 85.2 | 73.2 | 44.7 | 64.8
5 | 60.8 | 92.8 | – | O=C(O)CCc1ccc(O)c(-c2cc(CCC(=O)O)ccc2OCc2ccccc2)c1 [Example 1, 2-benzyloxy-2'-hydroxy-5,5'-bis (2carboxyethyl) biphenyl] | 69.9 | 64.6 | – | –
6 | 73.1 | – | 35.3 | CCCCCCCCOc1ccc(CCCC(=O)O)cc1-c1cc(CCCC(=O)O)ccc1O [Example 26, 2-octyloxy-2'-hydroxy-5,5'-bis (3-carboxypropyl) biphenyl] | – | 43.3 | – | –
7 | 55 | – | 19.5 | CCOc1ccc(CCC(=O)O)cc1-c1cc(CCC(=O)O)ccc1O [Example 17, 2-ethoxy-2'-hydroxy-5,5'-bis (2-carboxyethyl) biphenyl] | – | 69.2 | 47.2 | –
8 | 61.2 | – | 23.8 | CC(C)CCOc1ccc(CCCC(=O)O)cc1-c1cc(CCCC(=O)O)ccc1O [Example 27, 2-isopentyloxy-2'-hydroxy-5, 5'-bis (3-carboxypropyl) biphenyl] | – | – | – | –
9 | 60.6 | 95.2 | – | O=C(O)CCCOc1ccc(CCC(=O)O)cc1-c1cc(CCC(=O)O)ccc1O [Example 13, 2-(3-carboxypropoxy)-2'-hydroxy-5, 5'-bis (2-carboxyethyl) biphenyl] | – | – | – | –
10 | 47.6 | 89.6 | – | O=C(O)CCc1ccc(O)c(-c2cc(CCC(=O)O)ccc2OC2CCCCC2)c1 [Example 15, 2-cyclohexyloxy-2'-hydroxy-5, 5'-bis (2-carboxyethyl) biphenyl] | – | 43.2 | – | –
11 | 54 | 89.1 | – | O=C(O)CCc1ccc(O)c(-c2cc(CCC(=O)O)ccc2OCc2ccc(Br)cc2F)c1 [Example 2, 2-(2-fluoro-4-bromobenzyloxy)-2'-hydroxy-5,5'-bis (2-carboxyethyl) biphenyl] | – | – | – | –
12 | 56.4 | 90.9 | – | CCCCCOc1ccc(CCC(=O)O)cc1-c1cc(CCC(=O)O)ccc1O [Example 7, 2-pentyloxy-2'-hydroxy-5,5'-bis (2carboxyethyl) biphenyl] | – | – | – | –
13 | 69.2 | – | 20.5 | CCCCCCCOc1ccc(CCCC(=O)O)cc1-c1cc(CCCC(=O)O)ccc1O [Example 25, 2-heptyloxy-2'-hydroxy-5,5'-bis (3-carboxypropyl) biphenyl] | – | – | – | –
14 | 60.6 | – | 22 | O=C(O)CCCc1ccc(O)c(-c2cc(CCCC(=O)O)ccc2OCc2ccccc2)c1 [Example 18, 2-benzyloxy-2'-hydroxy-5,5'-bis (3-carboxypropyl) biphenyl] | – | – | – | –
15 | 51.4 | – | 21.1 | COc1ccc(CCC(=O)O)cc1-c1cc(CCC(=O)O)ccc1O [Example 16, 2-methoxy-2'-hydroxy-5,5'-bis (2-carboxyethyl) biphenyl] | – | 47.7 | 59.3 | –
16 | 65.3 | 91.9 | – | CCCCCCCOc1ccc(CCC(=O)O)cc1-c1cc(CCC(=O)O)ccc1O [Example 9, 2-heptyloxy-2'-hydroxy-5,5'-bis (2-carboxyethyl) biphenyl] | 65 | 37.8 | – | –
17 | 63.9 | – | 27.2 | CCOc1ccc(CCCC(=O)O)cc1-c1cc(CCCC(=O)O)ccc1O [Example 22, 2-ethoxy-2'-hydroxy-5,5'-bis (3-carboxypropyl) biphenyl] | – | – | – | –
18 | 71.7 | – | 28.8 | O=C(O)CCCc1ccc(O)c(-c2cc(CCCC(=O)O)ccc2OCCCCl)c1 [Example 28, 2-(3-chloropropoxy)-2'-hydroxy-5, 5'-bis (3-carboxypropyl) biphenyl] | – | 69 | – | –
19 | 81.5 | 92.8 | – | CCCCCCCCCCCOc1ccc(CCC(=O)O)cc1-c1cc(CCC(=O)O)ccc1O [Example 11, 2-undecyloxy-2'-hydroxy-5,5'-bis (2-carboxyethyl) biphenyl] | – | 34.7 | – | –
20 | 58.6 | 91.9 | – | CCCCCCOc1ccc(CCC(=O)O)cc1-c1cc(CCC(=O)O)ccc1O [Example 8, 2-hexyloxy-2'-hydroxy-5,5'-bis (2carboxyethyl) biphenyl] | – | – | – | –
21 | 73.1 | – | 18.7 | O=C(O)CCCc1ccc(O)c(-c2cc(CCCC(=O)O)ccc2OCC2CCCCC2)c1 [Example 20, 2-cyclohexylmethoxy-2'-hydroxy-5, 5'-bis (3-carboxypropyl) biphenyl] | – | 51.5 | – | –
22 | 52.4 | 90.5 | – | O=C(O)CCc1ccc(O)c(-c2cc(CCC(=O)O)ccc2OCCc2ccccc2)c1 [Example 14, 2-phenethyloxy-2'-hydroxy-5, 5'-bis (2-carboxyethyl) biphenyl] | – | 62.4 | – | –

Row | Structure (SMILES) | inhibition at 0.1 µg/mL [1] [%] | inhibition at 1 µg/mL [1] [%] | inhibition at 0.02 µg/mL [1] [%] | inhibition at 5 µg/mL [2] [%] | inhibition at 1 µg/mL [3] [%] | inhibition at 2.5 µg/mL [2] [%] | Inhibition of sorbitol Accumulation (%) Sciatic Nerve [3] [%]
23 | CCCCOc1ccc(CCC(=O)O)cc1-c1cc(CCC(=O)O)ccc1O [Example 6, 2-butoxy-2'-hydroxy-5,5'-bis (2-carboxyethyl) biphenyl] | 58.6 | 90 | – | – | – | – | –
24 | CCCCOc1ccc(CCCC(=O)O)cc1-c1cc(CCCC(=O)O)ccc1O [Example 24, 2-butoxy-2'-hydroxy-5,5'-bis (3-carboxypropyl) biphenyl] | 62.6 | – | 25.6 | – | – | – | –
